Source: ChEMBL document CHEMBL5625224, “Identification of [1,2,4]Triazolo[4,3-a]pyrazine PARP1 inhibitors with overcome acquired resistance activities” (Eur J Med Chem, 2023)
Active and inactive are the calls of the source. The calls are words filed in the database; no cut-off is given here.

How the values were obtained:
[1] = test system: Olaparib-resistant CAPAN-1; assay: Induction of apoptosis in human Olaparib-resistant CAPAN-1 cells assessed as late apoptotic cells at 0.5 uM incubated for 48 hrs by Annexin-V/PI staining based flow cytometry analysis (reference value: 3.67%); assay type: functional
CAPAN-1 [2] = assay: Induction of DNA double strand breaks in human CAPAN-1 cells assessed as increase in p-ATM foci formation at 0.1 to 1 uM incubated for 24 hrs by DAPI staining based confocal microscopic analysis; assay type: functional, cell-based; conditions: dose 0.1-1 µM
[3] = test system: Olaparib-resistant CAPAN-1; assay: Induction of apoptosis in human Olaparib-resistant CAPAN-1 cells assessed as early apoptotic cells at 0.5 uM incubated for 48 hrs by Annexin-V/PI staining based flow cytometry analysis (reference value: 8.50%); assay type: functional
CAPAN-1 [4] = assay: Induction of apoptosis in human CAPAN-1 cells assessed as late apoptotic cells at 1 uM incubated for 48 hrs by Annexin-V/PI staining based flow cytometry analysis (reference value: 4.95%); assay type: functional
CAPAN-1 [5] = assay: Induction of DNA double strand breaks in human CAPAN-1 cells assessed as increase in gamma-H2AX level at 0.1 to 1 uM incubated for 24 hrs by Western blot analysis; assay type: functional, cell-based; conditions: dose 0.1-1 µM
CAPAN-1 [6] = assay: Induction of apoptosis in human CAPAN-1 cells assessed as early apoptotic cells at 0.1 uM incubated for 48 hrs by Annexin-V/PI staining based flow cytometry analysis (reference value: 10.1%); assay type: functional
[7] = test system: Olaparib-resistant CAPAN-1; assay: Induction of apoptosis in human Olaparib-resistant CAPAN-1 cells assessed as early apoptotic cells at 1 uM incubated for 48 hrs by Annexin-V/PI staining based flow cytometry analysis (reference value: 8.50%); assay type: functional
[8] = Antiproliferative activity against human Talazoparib-resistant CAPAN-1 cells assessed as inhibition of cell growth incubated for 7 days by CCK-8 assay; assay type: functional, cell-based; conditions: CAPAN-1, 168 h
[9] = test system: Olaparib-resistant CAPAN-1; assay: Induction of DNA double strand breaks in human Olaparib-resistant CAPAN-1 cells assessed as effect on RPA32 phosphorylation at 0.1 to 1 uM incubated for 24 hrs by DAPI staining based confocal microscopic analysis; assay type: functional, cell-based; conditions: dose 0.1-1 µM
[10] = test system: Olaparib-resistant CAPAN-1; assay: Induction of DNA double strand breaks in human Olaparib-resistant CAPAN-1 cells assessed as gamma-H2AX foci formation at 0.1 to 1 uM incubated for 24 hrs by DAPI staining based confocal microscopic analysis; assay type: functional, cell-based; conditions: dose 0.1-1 µM
CAPAN-1 [11] = assay: Antiproliferative activity against human CAPAN-1 BRCA2-/- cells assessed as inhibition of cell growth incubated for 7 days by CCK-8 assay; assay type: functional, cell-based; conditions: CAPAN-1, 168 h
[12] = target: Poly [ADP-ribose] polymerase 1 (Homo sapiens, UniProt P09874); assay: Inhibition of PARP1 (unknown origin) incubated for 1 hr by ELISA analysis
CAPAN-1 [13] = assay: Induction of apoptosis in human CAPAN-1 cells assessed as late apoptotic cells at 0.5 uM incubated for 48 hrs by Annexin-V/PI staining based flow cytometry analysis (reference value: 4.95%); assay type: functional
[14] = test system: Olaparib-resistant CAPAN-1; assay: Induction of cell cycle arrest in human Olaparib-resistant CAPAN-1 cells assessed as accumulation of cell at S phase at 0.5 to 1 uM incubated for 24 hrs by […] staining based flow cytometry analysis; assay type: functional; conditions: dose 0.5-1 µM
CAPAN-1 [15] = assay: Induction of apoptosis in human CAPAN-1 cells assessed as early apoptotic cells at 1 uM incubated for 48 hrs by Annexin-V/PI staining based flow cytometry analysis (reference value: 10.1%); assay type: functional
[16] = test system: Olaparib-resistant CAPAN-1; assay: Induction of apoptosis in human Olaparib-resistant CAPAN-1 cells assessed as early apoptotic cells at 0.1 uM incubated for 48 hrs by Annexin-V/PI staining based flow cytometry analysis (reference value: 8.50%); assay type: functional
CAPAN-1 [17] = assay: Induction of DNA double strand breaks in human CAPAN-1 cells assessed as increase in Chk1 phosphorylation at 0.1 to 1 uM incubated for 24 hrs by Western blot analysis; assay type: functional, cell-based; conditions: dose 0.1-1 µM
[18] = Antiproliferative activity against human Simmiparib-resistant CAPAN-1 cells assessed as inhibition of cell growth incubated for 7 days by CCK-8 assay; assay type: functional, cell-based; conditions: CAPAN-1, 168 h
CAPAN-1 [19] = assay: Induction of DNA double strand breaks in human CAPAN-1 cells assessed as gamma-H2AX foci formation at 0.1 to 1 uM incubated for 24 hrs by DAPI staining based confocal microscopic analysis; assay type: functional, cell-based; conditions: dose 0.1-1 µM
[20] = test system: Olaparib-resistant CAPAN-1; assay: Antiproliferative activity against human Olaparib-resistant CAPAN-1 cells assessed as inhibition of cell growth incubated for 7 days by CCK-8 assay; assay type: functional, cell-based; conditions: Olaparib-resistant CAPAN-1, 168 h
CAPAN-1 [21] = assay: Induction of DNA double strand breaks in human CAPAN-1 cells assessed as increase in RPA32 phosphorylation at 0.1 to 1 uM incubated for 24 hrs by Western blot analysis; assay type: functional, cell-based; conditions: dose 0.1-1 µM
[22] = target: Voltage-gated inwardly rectifying potassium channel KCNH2 (Homo sapiens, UniProt Q12809); assay: Inhibition of hERG; assay type: toxicity
CAPAN-1 [23] = assay: Induction of cell cycle arrest in human CAPAN-1 cells assessed as accumulation of cell at S phase at 0.5 to 1 uM incubated for 24 hrs by […] staining based flow cytometry analysis; assay type: functional; conditions: dose 0.5-1 µM
MDA-MB-436 = assay: Antiproliferative activity against human MDA-MB-436 BRCA1-/- cells assessed as inhibition of cell growth incubated for 7 days by CCK-8 assay; assay type: functional, cell-based; conditions: MDA-MB-436, 168 h
CAPAN-1 [24] = assay: Induction of apoptosis in human CAPAN-1 cells assessed as late apoptotic cells at 0.1 uM incubated for 48 hrs by Annexin-V/PI staining based flow cytometry analysis (reference value: 4.95%); assay type: functional
CAPAN-1 [25] = assay: Induction of apoptosis in human CAPAN-1 cells assessed as early apoptotic cells at 0.5 uM incubated for 48 hrs by Annexin-V/PI staining based flow cytometry analysis (reference value: 10.1%); assay type: functional
CAPAN-1 [26] = assay: Induction of DNA double strand breaks in human CAPAN-1 cells assessed as effect on RPA32 phosphorylation at 0.1 to 1 uM incubated for 24 hrs by DAPI staining based confocal microscopic analysis; assay type: functional, cell-based; conditions: dose 0.1-1 µM
CAPAN-1 [27] = assay: Induction of cell cycle arrest in human CAPAN-1 cells assessed as accumulation of cell at G2/M phase at 0.1 uM incubated for 24 hrs by […] staining based flow cytometry analysis; assay type: functional
[28] = test system: Olaparib-resistant CAPAN-1; assay: Induction of apoptosis in human Olaparib-resistant CAPAN-1 cells assessed as late apoptotic cells at 1 uM incubated for 48 hrs by Annexin-V/PI staining based flow cytometry analysis (reference value: 3.67%); assay type: functional
[29] = test system: Olaparib-resistant CAPAN-1; assay: Induction of DNA double strand breaks in Olaparib-resistant human CAPAN-1 cells assessed as increase in p-ATM foci formation at 0.1 to 1 uM incubated for 24 hrs by DAPI staining based confocal microscopic analysis; assay type: functional, cell-based; conditions: dose 0.1-1 µM
[30] = test system: Olaparib-resistant CAPAN-1; assay: Induction of apoptosis in human Olaparib-resistant CAPAN-1 cells assessed as late apoptotic cells at 0.1 uM incubated for 48 hrs by Annexin-V/PI staining based flow cytometry analysis (reference value: 3.67%); assay type: functional

Voltage-gated inwardly rectifying potassium channel KCNH2, sequence (Q12809 whole entry): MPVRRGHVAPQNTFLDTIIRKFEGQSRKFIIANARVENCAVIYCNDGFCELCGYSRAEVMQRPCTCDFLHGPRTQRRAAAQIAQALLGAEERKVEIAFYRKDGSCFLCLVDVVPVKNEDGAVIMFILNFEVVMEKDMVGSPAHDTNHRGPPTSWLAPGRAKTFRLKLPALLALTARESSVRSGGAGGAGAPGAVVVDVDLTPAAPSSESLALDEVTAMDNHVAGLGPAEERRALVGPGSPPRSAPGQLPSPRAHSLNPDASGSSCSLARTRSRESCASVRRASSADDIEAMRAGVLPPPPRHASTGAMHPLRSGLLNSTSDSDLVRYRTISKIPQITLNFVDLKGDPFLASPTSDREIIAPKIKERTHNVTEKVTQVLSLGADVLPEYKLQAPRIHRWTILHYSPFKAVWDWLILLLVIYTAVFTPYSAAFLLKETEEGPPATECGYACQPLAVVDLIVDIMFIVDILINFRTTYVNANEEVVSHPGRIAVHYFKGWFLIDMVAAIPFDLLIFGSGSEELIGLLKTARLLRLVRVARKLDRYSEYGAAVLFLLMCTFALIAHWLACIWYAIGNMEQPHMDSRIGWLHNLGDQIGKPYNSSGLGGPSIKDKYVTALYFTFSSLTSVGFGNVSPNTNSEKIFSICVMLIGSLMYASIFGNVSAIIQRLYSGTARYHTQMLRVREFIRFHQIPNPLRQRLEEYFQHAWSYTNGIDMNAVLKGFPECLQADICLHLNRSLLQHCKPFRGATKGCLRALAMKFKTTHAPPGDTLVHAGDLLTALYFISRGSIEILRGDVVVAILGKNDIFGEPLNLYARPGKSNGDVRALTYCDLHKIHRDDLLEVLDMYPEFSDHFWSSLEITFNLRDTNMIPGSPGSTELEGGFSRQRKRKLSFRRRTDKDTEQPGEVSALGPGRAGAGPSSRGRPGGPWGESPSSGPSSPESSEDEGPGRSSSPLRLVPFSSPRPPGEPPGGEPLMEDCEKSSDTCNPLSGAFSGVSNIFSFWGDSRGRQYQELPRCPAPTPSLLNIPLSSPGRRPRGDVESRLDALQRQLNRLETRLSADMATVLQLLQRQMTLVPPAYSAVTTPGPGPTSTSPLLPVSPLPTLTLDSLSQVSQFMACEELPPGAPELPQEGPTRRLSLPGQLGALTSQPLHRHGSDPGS
Poly [ADP-ribose] polymerase 1, sequence (P09874 whole entry): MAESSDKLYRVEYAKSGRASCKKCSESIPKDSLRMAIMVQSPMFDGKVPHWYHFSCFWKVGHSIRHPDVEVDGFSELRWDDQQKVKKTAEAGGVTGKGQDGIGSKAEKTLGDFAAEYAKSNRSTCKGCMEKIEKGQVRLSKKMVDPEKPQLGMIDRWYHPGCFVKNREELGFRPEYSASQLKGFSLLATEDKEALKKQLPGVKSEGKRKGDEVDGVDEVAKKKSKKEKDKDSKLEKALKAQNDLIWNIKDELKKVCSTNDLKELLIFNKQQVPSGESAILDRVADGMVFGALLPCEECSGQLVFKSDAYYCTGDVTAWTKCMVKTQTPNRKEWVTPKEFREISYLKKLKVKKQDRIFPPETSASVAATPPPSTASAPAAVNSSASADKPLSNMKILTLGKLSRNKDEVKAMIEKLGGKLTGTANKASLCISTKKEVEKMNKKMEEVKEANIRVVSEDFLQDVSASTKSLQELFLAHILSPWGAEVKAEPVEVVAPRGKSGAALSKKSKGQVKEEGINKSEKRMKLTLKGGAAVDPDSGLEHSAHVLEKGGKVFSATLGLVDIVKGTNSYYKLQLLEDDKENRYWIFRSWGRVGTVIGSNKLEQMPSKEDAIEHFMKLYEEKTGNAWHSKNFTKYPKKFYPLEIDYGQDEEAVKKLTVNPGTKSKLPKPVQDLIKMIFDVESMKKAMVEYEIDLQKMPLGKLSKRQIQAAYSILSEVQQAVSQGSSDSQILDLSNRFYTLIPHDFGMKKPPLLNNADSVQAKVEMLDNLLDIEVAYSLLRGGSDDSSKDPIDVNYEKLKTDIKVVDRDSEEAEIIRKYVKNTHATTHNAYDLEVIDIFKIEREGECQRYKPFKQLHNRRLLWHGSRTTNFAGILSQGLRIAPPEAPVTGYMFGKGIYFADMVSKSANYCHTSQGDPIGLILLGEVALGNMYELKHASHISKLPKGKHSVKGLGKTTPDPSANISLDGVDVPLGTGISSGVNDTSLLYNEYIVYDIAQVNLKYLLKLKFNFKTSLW

## COc1cccc(-c2nnc3n2C(C)CN(C(=O)c2cc(Cc4n[nH]c(=O)c5ccccc45)ccc2F)C3)n1 (stereo unspecified)
[1]
  Activity: 29%
CAPAN-1 [2]
  Activity: Active
[3]
  Activity: 39.1%
CAPAN-1 [4]
  Activity: 43.9%
CAPAN-1 [5]
  Activity: Active
CAPAN-1 [6]
  Activity: 37.9%
[7]
  Activity: 36.6%
[8]
  IC50: < 0.3 nM
[9]
  Activity: Active
[10]
  Activity: Active
CAPAN-1 [11]
  IC50: < 0.3 nM
[12]
  IC50: 0.6 nM
CAPAN-1 [13]
  Activity: 42%
[14]
  Activity: Active
CAPAN-1 [15]
  Activity: 41%
[16]
  Activity: 17.6%
CAPAN-1 [17]
  Activity: Active
[18]
  IC50: 0.3 nM
CAPAN-1 [19]
  Activity: Active
[20]
  IC50: 0.3 nM
CAPAN-1 [21]
  Activity: Active
[22]
  IC50: 17500 nM
CAPAN-1 [23]
  Activity: Active
MDA-MB-436
  IC50: < 0.3 nM
CAPAN-1 [24]
  Activity: 17.7%
CAPAN-1 [25]
  Activity: 40.7%
CAPAN-1 [26]
  Activity: Active
CAPAN-1 [27]
  Activity: Active
[28]
  Activity: 30.7%
[29]
  Activity: Active
[30]
  Activity: 4.6%
